Reference: patent publication US20260265301A1, “LONG-ACTING K-OPIOID RECEPTOR AGONIST” (CHENGDU AODA BIOTECHNOLOGY CO., LTD, priority 2023, published 2026)
pEC50: −log10 of the molar value. Where a SMILES comes first, the peptide text is derived from it. Bridges are numbered along the chain shown (N, C = ends). Roman numbers before positions name the chains, in order. [ ]: non-standard residue; d: D form. The star is where a group is joined. X1 = O=C(O)CCCCCCCCCCCCCCCCC(=O)N[C@@H](CCC(=O)NCCOCCOCCOCCOCC(=O)*)C(=O)O; Api = NC1(C(=O)O)CCNCC1

Assays:
[1] = target: T1, human κ opioid receptor (OPRK1) (Homo sapiens, UniProt P41145); assay: Agonist activity: inhibition of forskolin-stimulated cAMP release (HTRF) in CHO-K1 cells stably expressing opioid receptors; type: cell-based; settings: for Relative Activity %: relative to Difelikefalin = 100%
T1 construct: expressed in transfected cells; host or cells: CHO-K1
T1 sequence (P41145 whole entry): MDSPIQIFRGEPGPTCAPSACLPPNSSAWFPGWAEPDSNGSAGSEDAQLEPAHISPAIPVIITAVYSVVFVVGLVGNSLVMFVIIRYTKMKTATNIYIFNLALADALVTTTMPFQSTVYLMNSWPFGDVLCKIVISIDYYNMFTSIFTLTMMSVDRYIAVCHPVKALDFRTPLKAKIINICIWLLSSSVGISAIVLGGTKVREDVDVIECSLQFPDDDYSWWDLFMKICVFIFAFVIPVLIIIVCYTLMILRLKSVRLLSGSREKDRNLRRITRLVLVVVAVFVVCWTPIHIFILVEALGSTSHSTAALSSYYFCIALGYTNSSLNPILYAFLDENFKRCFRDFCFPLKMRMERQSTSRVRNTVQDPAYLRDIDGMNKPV
Source text: Gi-coupled human κ opioid receptor (OPRK1), upon stimulation with its specific opioid receptor agonists, can inhibit the intracellular adenylate cyclase pathway, and decrease cAMP levels. Forskolin can stimulate cAMP release in cell lines highly expressing opioid receptors. By stimulating cell lines stably transfected with opioid receptors, the inhibitory effect of a test compound on forskolin-stimulated cAMP release can be measured to determine the activity of the compound. The relative light units (RLU) from the cells after stimulation with different doses were measured via the homogeneous time-resolved fluorescence (HTRF) technique, and the EC50 of the agonist was subsequently calculated. This activity determination method is a currently commonly used method for determining the activities of opioid receptor agonists at home and abroad.
A CHO-K1 cell line stably expressing opioid receptors was used. Stably transfected cells were stimulated with various concentrations of agonists (under the stimulation of a certain concentration of forskolin). The relative light units from the cells after stimulation with different doses were measured, from which the EC50 value of the agonist was subsequently obtained by calculation.

[2] = Preliminary pharmacokinetic properties after subcutaneous administration; type: in vivo; settings: cynomolgus monkey; male Macaca fascicularis, subcutaneous (SC), 0.1 mg/kg, plasma, LC-MS; read-out: t½ (converted)
Procedure: The compound with the best activity was selected for determination of its preliminary pharmacokinetic properties. Two male Macaca fascicularis were used as experimental animals. A subcutaneous administration was performed at a dose of 0.1 mg/kg. Venous blood samples were collected before administration (0 h) and at 1 h, 2 h, 3 h, 4 h, 8 h, 12 h, 18 h, 24 h, 48 h, 96 h, 144 h, and 168 h post-administration. Plasma samples were separated by centrifugation. The plasma concentration of the compound in the plasma samples was determined using liquid chromatography-mass spectrometry.

Row | SMILES | Relative Activity % [1] | half-life [2] | pEC50 ([1]; CHO-K1 cell line stably expressing opioid receptors, forskolin-stimulated cAMP, HTRF)
1 | CCOc1ccc(C[C@@H](NC(=O)[C@H](N)Cc2ccccc2)C(=O)N[C@H](CC(C)C)C(=O)N[C@H](CCCCN)C(=O)N2CCC(N)(C(=O)N[C@@H](CCCCNC(=O)COCCOCCOCCOCCNC(=O)CC[C@H](NC(=O)CCCCCCCCCCCCCCCCC(=O)O)C(=O)O)C(N)=O)CC2)cc1 [Compound 1, D-Phe-D-Tyr(Et)-D-Leu-D-Lys-4-aminopiperidine-4-carboxamide-Lys(PEG4CH2CO-γGlu-octadecanedioic acid)-NH2] | 15.6% |  | 
2 | CCOc1ccc(C[C@@H](NC(=O)[C@H](N)Cc2ccccc2)C(=O)N[C@H](CC(C)C)C(=O)N[C@H](CCCCN)C(=O)N2CCC(N)(C(=O)NCCOCC(=O)N[C@@H](CCCCNC(=O)COCCOCCOCCOCCNC(=O)CC[C@H](NC(=O)CCCCCCCCCCCCCCCCC(=O)O)C(=O)O)C(N)=O)CC2)cc1 [Compound 2, D-Phe-D-Tyr(Et)-D-Leu-D-Lys-4-aminopiperidine-4-carboxamide-PEG1CH2CO-Lys(PEG4CH2CO-γGlu-octadecanedioic acid)-NH2] | 20.7% |  | 
3 | CCOc1ccc(C[C@@H](NC(=O)[C@H](N)Cc2ccccc2)C(=O)N[C@H](CC(C)C)C(=O)N[C@H](CCCCN)C(=O)N2CCC(N)(C(=O)NCCOCCOCC(=O)N[C@@H](CCCCNC(=O)COCCOCCOCCOCCNC(=O)CC[C@H](NC(=O)CCCCCCCCCCCCCCCCC(=O)O)C(=O)O)C(N)=O)CC2)cc1 [Compound 3, D-Phe-D-Tyr(Et)-D-Leu-D-Lys-4-aminopiperidine-4-carboxamide-AEEA-Lys(PEG4CH2CO-γGlu-octadecanedioic acid)-NH2] | 23.8% | 55.1 h | 
4 | CCOc1ccc(C[C@@H](NC(=O)[C@H](N)Cc2ccccc2)C(=O)N[C@H](CC(C)C)C(=O)N[C@H](CCCCN)C(=O)N2CCC(N)(C(=O)NCCOCCOCCOCCOCC(=O)N[C@@H](CCCCNC(=O)COCCOCCOCCOCCNC(=O)CC[C@H](NC(=O)CCCCCCCCCCCCCCCCC(=O)O)C(=O)O)C(N)=O)CC2)cc1 [Compound 4, D-Phe-D-Tyr(Et)-D-Leu-D-Lys-4-aminopiperidine-4-carboxamide-PEG4CH2CO-Lys(PEG4CH2CO-γGlu-octadecanedioic acid)-NH2] | 17.2% |  | 
5 | COc1ccc(C[C@@H](NC(=O)[C@H](N)Cc2ccccc2)C(=O)N[C@H](CC(C)C)C(=O)N[C@H](CCCCN)C(=O)N2CCC(N)(C(=O)NCCOCCOCC(=O)N[C@@H](CCCCNC(=O)COCCOCCOCCOCCNC(=O)CC[C@H](NC(=O)CCCCCCCCCCCCCCCCC(=O)O)C(=O)O)C(N)=O)CC2)cc1 [Compound 5, D-Phe-D-Tyr(Me)-D-Leu-D-Lys-4-aminopiperidine-4-carboxamide-AEEA-Lys(PEG4CH2CO-γGlu-octadecanedioic acid)-NH2] | 13.6% |  | 
6 | CC(C)C[C@@H](NC(=O)[C@@H](Cc1ccc(Cl)cc1)NC(=O)[C@H](N)Cc1ccccc1)C(=O)N[C@H](CCCCN)C(=O)N1CCC(N)(C(=O)NCCOCCOCC(=O)N[C@@H](CCCCNC(=O)COCCOCCOCCOCCNC(=O)CC[C@H](NC(=O)CCCCCCCCCCCCCCCCC(=O)O)C(=O)O)C(N)=O)CC1 [Compound 6, D-Phe-D-Phe(4-Cl)-D-Leu-D-Lys-4-aminopiperidine-4-carboxamide-AEEA-Lys(PEG4CH2CO-γGlu-octadecanedioic acid)-NH2] | 12.2% |  | 
7 | CC(C)C[C@@H](NC(=O)[C@@H](Cc1ccc(F)cc1)NC(=O)[C@H](N)Cc1ccccc1)C(=O)N[C@H](CCCCN)C(=O)N1CCC(N)(C(=O)NCCOCCOCC(=O)N[C@@H](CCCCNC(=O)COCCOCCOCCOCCNC(=O)CC[C@H](NC(=O)CCCCCCCCCCCCCCCCC(=O)O)C(=O)O)C(N)=O)CC1 [Compound 7, D-Phe-D-Phe(4-F)-D-Leu-D-Lys-4-aminopiperidine-4-carboxamide-AEEA-Lys(PEG4CH2CO-γGlu-octadecanedioic acid)-NH2] | 10.5% |  | 
8 | CCOc1ccc(C[C@@H](NC(=O)[C@H](N)Cc2ccccc2)C(=O)N[C@H](CC(C)C)C(=O)N[C@H](CCCCN)C(=O)N2CCC(N)(C(=O)NCCOCCOCC(=O)N[C@@H](CCCCNC(=O)COCCOCCOCCNC(=O)CC[C@H](NC(=O)CCCCCCCCCCCCCCCCC(=O)O)C(=O)O)C(N)=O)CC2)cc1 [Compound 8, D-Phe-D-Tyr(Et)-D-Leu-D-Lys-4-aminopiperidine-4-carboxamide-AEEA-Lys(PEG3CH2CO-γGlu-octadecanedioic acid)-NH2] | 17.7% |  | 
9 | CCOc1ccc(C[C@@H](NC(=O)[C@H](N)Cc2ccccc2)C(=O)N[C@H](CC(C)C)C(=O)N[C@H](CCCCN)C(=O)N2CCC(N)(C(=O)NCCOCCOCC(=O)N[C@@H](CCCCNC(=O)COCCOCCOCCOCCOCCNC(=O)CC[C@H](NC(=O)CCCCCCCCCCCCCCCCC(=O)O)C(=O)O)C(N)=O)CC2)cc1 [Compound 9, D-Phe-D-Tyr(Et)-D-Leu-D-Lys-4-aminopiperidine-4-carboxamide-AEEA-Lys(PEG5CH2CO-γGlu-octadecanedioic acid)-NH2] | 16.4% |  | 
10 | CCOc1ccc(C[C@@H](NC(=O)[C@H](N)Cc2ccccc2)C(=O)N[C@H](CC(C)C)C(=O)N[C@H](CCCCN)C(=O)N2CCC(N)(C(=O)NCC(=O)N[C@@H](CCCCNC(=O)COCCOCCOCCOCCNC(=O)CC[C@H](NC(=O)CCCCCCCCCCCCCCCCC(=O)O)C(=O)O)C(N)=O)CC2)cc1 [Compound 10, D-Phe-D-Tyr(Et)-D-Leu-D-Lys-4-aminopiperidine-4-carboxamide-Gly-Lys(PEG4CH2CO-γGlu-octadecanedioic acid)-NH2] | 15.1% |  | 
11 | CCOc1ccc(C[C@@H](NC(=O)[C@H](N)Cc2ccccc2)C(=O)N[C@H](CC(C)C)C(=O)N[C@H](CCCCN)C(=O)N2CCC(N)(C(=O)NCC(=O)NCC(=O)N[C@@H](CCCCNC(=O)COCCOCCOCCOCCNC(=O)CC[C@H](NC(=O)CCCCCCCCCCCCCCCCC(=O)O)C(=O)O)C(N)=O)CC2)cc1 [Compound 11, D-Phe-D-Tyr(Et)-D-Leu-D-Lys-4-aminopiperidine-4-carboxamide-Gly-Gly-Lys(PEG4CH2CO-γGlu-octadecanedioic acid)-NH2] (I: H-[Api]GGK(X1)-NH2 / II: H-[dF][dY](Et)[dL][dK]; amide I:1-II:C; N-terminus assumed) | 16.9% |  | 
12 | CCOc1ccc(C[C@@H](NC(=O)[C@H](N)Cc2ccccc2)C(=O)N[C@H](CC2CC2)C(=O)N[C@H](CCCCN)C(=O)N2CCC(N)(C(=O)NCCOCCOCC(=O)N[C@@H](CCCCNC(=O)COCCOCCOCCOCCNC(=O)CC[C@H](NC(=O)CCCCCCCCCCCCCCCCC(=O)O)C(=O)O)C(N)=O)CC2)cc1 [Compound 12, D-Phe-D-Tyr(Et)-D-Cyclopropylalanine-D-Lys-4-aminopiperidine-4-carboxamide-AEEA-Lys(PEG4CH2CO-γGlu-octadecanedioic acid)-NH2] | 15.2% |  | 
13 | CC(C)C[C@@H](NC(=O)[C@@H](Cc1ccccc1)NC(=O)[C@H](N)Cc1ccccc1)C(=O)N[C@H](CCCCN)C(=O)N1CCC(N)(C(=O)O)CC1 [Difelikefalin, reference compound] |  |  | 9.19
